Data on 13 compounds can be found in patent publication US12539292B2, “BRM targeting compounds and associated methods of use” (Arvinas Operations, Inc., priority 2018, dated 2026).

The assay addresses T1, BRM (Homo sapiens, UniProt P51531).
T1 construct: In-Cell Western Screen of BRM Degradation in SW1573 Cells; endogenous in cells; host or cells: SW1573
Put plainly: In-cell Western screen of BRM degradation in SW1573 cells (Dmax and DC50). It counts as cell-based. Conditions: BRM degradation, SW1573 cells; for DC50: read-out: DC50; for Dmax: read-out: Dmax (%) (% degraded). In a few lines:
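SW1573 cells were treated with compound overnight (18-20 h; final DMSO 0.1%), then fixed in 4% PFA, permeabilized with Triton X-100 and blocked. BRM was detected by in-cell Western using 800 nm anti-rabbit and 680 nm anti-mouse secondaries, and Dmax and DC50 were derived from the LI-COR Odyssey signal.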

Setting [1] is: when tested at the top concentration of between 0.3 and 10 μM.
Where [2] appears, read: tested at the top concentration of between 0.3 and 10 μM.

Like-named read-outs stand apart in the source and are kept apart here.

T1 sequence (P51531 whole entry): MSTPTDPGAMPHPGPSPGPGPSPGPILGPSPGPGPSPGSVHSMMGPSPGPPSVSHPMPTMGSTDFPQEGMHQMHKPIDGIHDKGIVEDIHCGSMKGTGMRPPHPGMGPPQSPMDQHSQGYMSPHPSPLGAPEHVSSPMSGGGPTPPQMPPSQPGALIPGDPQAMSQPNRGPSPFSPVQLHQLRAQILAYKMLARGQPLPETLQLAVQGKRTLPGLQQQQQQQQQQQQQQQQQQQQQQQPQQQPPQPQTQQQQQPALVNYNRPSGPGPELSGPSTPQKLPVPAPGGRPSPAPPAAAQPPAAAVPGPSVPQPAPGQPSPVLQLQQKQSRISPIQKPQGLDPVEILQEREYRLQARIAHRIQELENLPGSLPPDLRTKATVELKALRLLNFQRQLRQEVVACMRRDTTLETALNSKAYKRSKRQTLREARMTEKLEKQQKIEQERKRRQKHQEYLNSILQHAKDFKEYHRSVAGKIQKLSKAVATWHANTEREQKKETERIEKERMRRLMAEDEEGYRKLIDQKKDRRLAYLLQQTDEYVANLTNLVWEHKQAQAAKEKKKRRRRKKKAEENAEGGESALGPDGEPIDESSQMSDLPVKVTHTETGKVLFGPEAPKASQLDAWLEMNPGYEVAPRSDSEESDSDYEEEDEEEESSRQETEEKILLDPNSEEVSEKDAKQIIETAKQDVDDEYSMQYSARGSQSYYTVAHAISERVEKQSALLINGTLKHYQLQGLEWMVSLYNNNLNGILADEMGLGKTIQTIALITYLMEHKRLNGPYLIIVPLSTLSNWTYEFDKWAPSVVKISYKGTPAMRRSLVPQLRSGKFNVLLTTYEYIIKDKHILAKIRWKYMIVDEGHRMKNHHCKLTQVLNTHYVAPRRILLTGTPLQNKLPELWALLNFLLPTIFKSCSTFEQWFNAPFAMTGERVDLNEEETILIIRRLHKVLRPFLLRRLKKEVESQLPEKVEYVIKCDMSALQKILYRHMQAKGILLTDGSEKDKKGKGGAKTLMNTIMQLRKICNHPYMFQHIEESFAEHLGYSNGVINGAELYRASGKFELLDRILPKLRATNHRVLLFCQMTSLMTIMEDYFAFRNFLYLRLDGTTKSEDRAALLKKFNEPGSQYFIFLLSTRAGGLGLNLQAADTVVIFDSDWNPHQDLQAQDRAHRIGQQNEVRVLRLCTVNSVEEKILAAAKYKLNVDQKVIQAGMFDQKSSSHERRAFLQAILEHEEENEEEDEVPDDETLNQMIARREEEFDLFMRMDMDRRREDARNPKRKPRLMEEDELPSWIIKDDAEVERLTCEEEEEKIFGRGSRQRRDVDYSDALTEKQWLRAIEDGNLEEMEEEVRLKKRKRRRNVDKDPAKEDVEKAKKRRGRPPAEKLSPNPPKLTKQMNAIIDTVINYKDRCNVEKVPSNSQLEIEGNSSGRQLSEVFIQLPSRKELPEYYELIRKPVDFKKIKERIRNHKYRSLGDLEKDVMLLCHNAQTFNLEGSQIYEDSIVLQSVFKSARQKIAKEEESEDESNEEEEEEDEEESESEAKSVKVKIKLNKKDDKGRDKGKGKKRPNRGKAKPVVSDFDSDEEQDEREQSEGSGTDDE

In general, DC50 refers to the concentration at which degradation of the target reaches its halfway point. The Dmax is the largest share of the target that was removed. On to `Cc1ncsc1-c1ccc([C@H](C)NC(=O)[C@@H]2C[C@@H](O)CN2C(=O)[C@@H](c2cc(OCCN3CCN(CCOc4cc(N5C6CCC5CN(c5cc(-c7ccccc7O)nnc5N)C6)ccn4)C[C@H]3C)no2)C(C)C)cc1` [compound 142, (2S,4R)-1-((2R)-2-(3-(2-((2R)-4-(2-((4-(3-(3-amino-6-(2-hydroxyphenyl)pyridazin-4-yl)-3,8-diazabicyclo[3.2.1]octan-8-yl)pyridin-2-yl)oxy)ethyl)-2-methylpiperazin-1-yl)ethoxy)isoxazol-5-yl)-3-methylbutanoyl)-4-hydroxy-N-((S)-1-(4-(4-methylthiazol-5-yl)phenyl)ethyl)pyrrolidine-2-carboxamide], for which the DC50 is less than 2.5 nM. In addition, the Dmax under setting [1] was greater than 75%.
As for `Cc1ncsc1-c1ccc([C@H](C)NC(=O)[C@@H]2C[C@@H](O)CN2C(=O)[C@@H](c2cc(N3CCN(CCN4CCC(O[C@H]5C[C@H](Oc6cc(N7C8CCC7CN(c7cc(-c9ccccc9O)nnc7N)C8)ccn6)C5)CC4)CC3)no2)C(C)C)cc1` [compound 144, (2S,4R)-1-((2R)-2-(3-(4-(2-(4-((1r,3r)-3-((4-(3-(3-amino-6-(2-hydroxyphenyl)pyridazin-4-yl)-3,8-diazabicyclo[3.2.1]octan-8-yl)pyridin-2-yl)oxy)cyclobutoxy)piperidin-1-yl)ethyl)piperazin-1-yl)isoxazol-5-yl)-3-methylbutanoyl)-4-hydroxy-N-((S)-1-(4-(4-methylthiazol-5-yl)phenyl)ethyl)pyrrolidine-2-carboxamide], the DC50 is less than 2.5 nM. Besides, the Dmax under setting [1] is greater than 75%.
With `Cc1ncsc1-c1ccc([C@H](C)NC(=O)[C@@H]2C[C@@H](O)CN2C(=O)[C@H](c2cc(OCCOc3ccc(C(C)n4cc(-c5cc(-c6ccccc6O)nnc5N)cn4)cc3)no2)C(C)C)cc1` (stereo partly drawn) [compound 156, (2S,4R)-1-((2S)-2-(3-(2-(4-(1-(4-(3-amino-6-(2-hydroxyphenyl)pyridazin-4-yl)-1H-pyrazol-1-yl)ethyl)phenoxy)ethoxy)isoxazol-5-yl)-3-methylbutanoyl)-4-hydroxy-N-((S)-1-(4-(4-methylthiazol-5-yl)phenyl)ethyl)pyrrolidine-2-carboxamide], the DC50 is greater than 30 nM. In addition, the Dmax under setting [2] was greater than 75%.
On to `Cc1ncsc1-c1ccc([C@H](C)NC(=O)[C@@H]2C[C@@H](O)CN2C(=O)[C@H](c2cc(OCCn3cc(C(C)n4cc(-c5cc(-c6ccccc6O)nnc5N)cn4)ccc3=O)no2)C(C)C)cc1` (stereo partly drawn) [compound 157, (2S,4R)-1-((2S)-2-(3-(2-(5-(1-(4-(3-amino-6-(2-hydroxyphenyl)pyridazin-4-yl)-1H-pyrazol-1-yl)ethyl)-2-oxopyridin-1(2H)-yl)ethoxy)isoxazol-5-yl)-3-methylbutanoyl)-4-hydroxy-N-((S)-1-(4-(4-methylthiazol-5-yl)phenyl)ethyl)pyrrolidine-2-carboxamide], for which the DC50 was in the range of 10 to 30 nM. Besides, the Dmax under setting [2] is greater than 75%.
As to `Cc1ncsc1-c1ccc([C@H](CO)NC(=O)[C@@H]2C[C@@H](O)CN2C(=O)[C@H](c2cc(OCCN3CCN(CCOc4cc(N5C6CCC5CN(c5cc(-c7ccccc7O)nnc5N)C6)ccn4)CC3)no2)C(C)C)cc1` [compound 158, (2S,4R)-1-((2S)-2-(3-(2-(4-(2-((4-(3-(3-amino-6-(2-hydroxyphenyl)pyridazin-4-yl)-3,8-diazabicyclo[3.2.1]octan-8-yl)pyridin-2-yl)oxy)ethyl)piperazin-1-yl)ethoxy)isoxazol-5-yl)-3-methylbutanoyl)-4-hydroxy-N-((R)-2-hydroxy-1-(4-(4-methylthiazol-5-yl)phenyl)ethyl)pyrrolidine-2-carboxamide], the DC50 is greater than 30 nM. Moreover, under setting [2], the Dmax was greater than 75%.
For `CC(C)[C@H](C(=O)N1C[C@H](O)C[C@H]1C(=O)N[C@@H](C)c1ccc(-c2nccn2C)cc1)c1cc(OCCN2CCN(CCOc3cc(N4C5CCC4CN(c4cc(-c6ccccc6O)nnc4N)C5)ccn3)CC2)no1` [compound 159, (2S,4R)-1-((2S)-2-(3-(2-(4-(2-((4-(3-(3-amino-6-(2-hydroxyphenyl)pyridazin-4-yl)-3,8-diazabicyclo[3.2.1]octan-8-yl)pyridin-2-yl)oxy)ethyl)piperazin-1-yl)ethoxy)isoxazol-5-yl)-3-methylbutanoyl)-4-hydroxy-N-((S)-1-(4-(1-methyl-1H-imidazol-2-yl)phenyl)ethyl)pyrrolidine-2-carboxamide], the DC50 was greater than 30 nM. For the same compound, the Dmax under setting [2] was less than 50%.
As for `Cc1ncsc1-c1ccc([C@H](C)NC(=O)[C@@H]2C[C@@H](O)CN2C(=O)[C@H](c2cc(OCCN3CCN(CCOc4cc(N5C6CCC5CN(c5cc(-c7ccccc7O)nnc5N)C6)ccn4)CC3)no2)C(C)C)cn1` [compound 160, (2S,4R)-1-((2S)-2-(3-(2-(4-(2-((4-(3-(3-amino-6-(2-hydroxyphenyl)pyridazin-4-yl)-3,8-diazabicyclo[3.2.1]octan-8-yl)pyridin-2-yl)oxy)ethyl)piperazin-1-yl)ethoxy)isoxazol-5-yl)-3-methylbutanoyl)-4-hydroxy-N-((S)-1-(6-(4-methylthiazol-5-yl)pyridin-3-yl)ethyl)pyrrolidine-2-carboxamide], the DC50 is greater than 30 nM. For the same compound, the Dmax under setting [2] was greater than 75%.
Consider `Cc1ncoc1-c1ccc([C@H](C)NC(=O)[C@@H]2C[C@@H](O)CN2C(=O)[C@H](c2cc(OCCN3CCN(CCOc4cc(N5C6CCC5CN(c5cc(-c7ccccc7O)nnc5N)C6)ccn4)CC3)no2)C(C)C)cn1` [compound 161, (2S,4R)-1-((2S)-2-(3-(2-(4-(2-((4-(3-(3-amino-6-(2-hydroxyphenyl)pyridazin-4-yl)-3,8-diazabicyclo[3.2.1]octan-8-yl)pyridin-2-yl)oxy)ethyl)piperazin-1-yl)ethoxy)isoxazol-5-yl)-3-methylbutanoyl)-4-hydroxy-N-((S)-1-(6-(4-methyloxazol-5-yl)pyridin-3-yl)ethyl)pyrrolidine-2-carboxamide], for which the DC50 was greater than 30 nM. Under setting [2], the Dmax was less than 50%.
As to `Cc1ncsc1-c1ccc([C@H](C)NC(=O)[C@@H]2C[C@@H](O)CN2C(=O)[C@H](c2cc(OCCOc3ccc(C(C)n4cc(-c5cc(-c6ccccc6O)nnc5N)cn4)cn3)no2)C(C)C)cc1` (stereo partly drawn) [compound 163, (2S,4R)-1-((2S)-2-(3-(2-((5-(1-(4-(3-amino-6-(2-hydroxyphenyl)pyridazin-4-yl)-1H-pyrazol-1-yl)ethyl)pyridin-2-yl)oxy)ethoxy)isoxazol-5-yl)-3-methylbutanoyl)-4-hydroxy-N-((S)-1-(4-(4-methylthiazol-5-yl)phenyl)ethyl)pyrrolidine-2-carboxamide], the DC50 was less than 2.5 nM. Moreover, the maximal degradation (Dmax) under setting [2] was greater than 75%.
In the case of `Cc1ncsc1-c1ccc([C@H](C)NC(=O)[C@@H]2C[C@@H](O)CN2C(=O)[C@H](c2cc(OCCN3CCC4(CC3)CC(OCCN3CCOC5(CCN(c6cc(-c7ccccc7O)nnc6N)CC5)C3)C4)no2)C(C)C)cc1` [compound 164, (2S,4R)-1-((S)-2-(3-(2-(2-(2-(9-(3-amino-6-(2-hydroxyphenyl)pyridazin-4-yl)-1-oxa-4,9-diazaspiro[5.5]undecan-4-yl)ethoxy)-7-azaspiro[3.5]nonan-7-yl)ethoxy)isoxazol-5-yl)-3-methylbutanoyl)-4-hydroxy-N-((S)-1-(4-(4-methylthiazol-5-yl)phenyl)ethyl)pyrrolidine-2-carboxamide], the DC50 lay within 10 to 30 nM. The Dmax under setting [2] was 50 to 75%.
On to `Cc1ncsc1-c1ccc(CNC(=O)[C@@H]2C[C@@H](O)CN2C(=O)[C@H](c2cc(OCCN3CCN(CCOCCn4cc(-c5cc(-c6ccccc6O)nnc5N)cn4)CC3)no2)C(C)C)cc1` [compound 165, (2S,4R)-1-((S)-2-(3-(2-(4-(2-(2-(4-(3-amino-6-(2-hydroxyphenyl)pyridazin-4-yl)-1H-pyrazol-1-yl)ethoxy)ethyl)piperazin-1-yl)ethoxy)isoxazol-5-yl)-3-methylbutanoyl)-4-hydroxy-N-(4-(4-methylthiazol-5-yl)benzyl)pyrrolidine-2-carboxamide], for which the half-maximal degradation concentration (DC50) was greater than 30 nM. Moreover, the Dmax under setting [2] is less than 50%.
Consider `Cc1ncsc1-c1ccc([C@H](C)NC(=O)[C@@H]2C[C@@H](O)CN2C(=O)[C@H](c2cc(OCCN3CCN(Cc4ccc(C(C)n5cc(-c6cc(-c7ccccc7O)nnc6N)cn5)cc4)CC3)no2)C(C)C)cc1` (stereo partly drawn) [compound 166, (2S,4R)-1-((2S)-2-(3-(2-(4-(4-(1-(4-(3-amino-6-(2-hydroxyphenyl)pyridazin-4-yl)-1H-pyrazol-1-yl)ethyl)benzyl)piperazin-1-yl)ethoxy)isoxazol-5-yl)-3-methylbutanoyl)-4-hydroxy-N-((S)-1-(4-(4-methylthiazol-5-yl)phenyl)ethyl)pyrrolidine-2-carboxamide], for which the DC50 is 2.5 to 10 nM. In addition, the Dmax under setting [2] was greater than 75%.
In the case of `CC(C)C(C(=O)N1C[C@H](O)C[C@H]1C(=O)N[C@@H](C)c1ccc(-c2scnc2CN(C)C)cc1)c1cc(OCCN2CCN(CCOc3cc(N4C5CCC4CN(c4cc(-c6ccccc6O)nnc4N)C5)ccn3)CC2)no1` (stereo partly drawn) [compound 167, (2S,4R)-1-(2-(3-(2-(4-(2-((4-(3-(3-amino-6-(2-hydroxyphenyl)pyridazin-4-yl)-3,8-diazabicyclo[3.2.1]octan-8-yl)pyridin-2-yl)oxy)ethyl)piperazin-1-yl)ethoxy)isoxazol-5-yl)-3-methylbutanoyl)-N-((S)-1-(4-(4-((dimethylamino)methyl)thiazol-5-yl)phenyl)ethyl)-4-hydroxypyrrolidine-2-carboxamide], the DC50 lay within 10 to 30 nM. For the same compound, the Dmax under setting [2] is greater than 75%.
